# Measurements published in PubChem BioAssay (NCI).
#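 Values below derive from 48-hour exposures of cells grown in 96-well plates, with endpoints linearly interpolated between the two concentrations bracketing the appropriate inhibition level. TGI: concentration producing complete growth inhibition.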
# Tests used:
# Experiment in all cases: growth of human tumour cells (NCI), 48 h
# [1] = test system: IGROV1 ovarian
# [2] = test system: SK-MEL-2 melanoma
# [3] = test system: M14 melanoma
# [4] = test system: 786-0 renal
# [5] = test system: OVCAR-8 ovarian
# [6] = test system: EKVX NSCLC
# [7] = test system: HCT-15 colon
# [8] = test system: MCF7 breast
# [9] = test system: MDA-MB-231 breast
# [10] = test system: DU-145 prostate
SMILES,TGI [1] [µM],TGI [2] [µM],TGI [3] [µM],TGI [4] [µM],TGI [5] [µM],TGI [6] [µM],TGI [7] [µM],TGI [8] [µM],TGI [9] [µM],TGI [10] [µM]
COC(=O)c1ccc(C=C(C#N)C#N)cc1,73.8,38.1,32.7,33.4,56.5,> 100,> 100,–,–,–
CC(C)=CCC/C(C)=C/CCC1(C)C=Cc2c(c3ccccc3oc2=O)O1 (centres undefined),30.8,31.4,–,–,30.3,33.9,30.2,30.5,–,–
CN(C)C(F)=PC(F)(F)F (centres undefined),> 100,> 100,> 100,> 100,> 100,> 100,> 100,–,–,–
COc1cc(-c2cc(=O)c3ccccc3[nH]2)cc(OC)c1OC,–,–,> 75,> 75,> 75,> 75,> 75,–,–,–
CSC(=N)N1N=C2/C(=C/c3ccccc3)CCC[C@H]2[C@H]1c1ccccc1,9.18,15.4,14.8,20.3,24.8,19.4,20.9,–,–,–
CC(C)N(C(=O)C12C3C4C1C1C2C3C41C(=O)N(C(C)C)C(C)C)C(C)C (centres undefined),> 50,> 50,> 50,> 50,> 50,> 50,> 50,–,–,–
Cc1c(C2=NN=C(N=Nc3c(O)cccc3O)/C2=C/c2ccccc2)c(=O)n(-c2ccccc2)n1C,> 100,> 100,–,–,> 100,> 100,> 100,> 100,–,–
O=c1n(-c2ccccc2)c(=O)n2c(-c3ccccc3)c(-c3ccccc3)n12,> 100,> 100,> 100,> 100,> 100,> 100,> 100,> 100,> 100,–
C/C(N=NS(=O)(=O)c1ccc(C)cc1)=C1\C=CC=CN1O,> 100,–,> 100,> 100,> 100,> 100,> 100,–,–,–
NC(CCCCNCc1ccccc1O)C(=O)O (centres undefined),> 100,> 100,> 100,> 100,> 100,> 100,> 100,–,–,–
CNC(=O)N1N[C@H](c2ccccc2)[C@@H]1c1ccccc1,56.4,32,56.1,> 100,29.9,85.6,64,62.5,> 100,–
CSc1ccc2c(cc1=O)C(NC(=O)c1ccc(C#N)cc1)CCc1cc(O)c(O)c(O)c1-2 (centres undefined),–,–,89.6,> 100,99.7,> 100,36.6,–,–,–
S=C(N/N=C/c1ccccn1)N1CCCCCC1,–,24.8,0.251,1.22,12.7,4.04,> 33.5,25.3,–,> 100
CCc1ccccc1NC(=O)CC1NC(=O)CS1 (centres undefined),> 100,> 100,> 100,> 100,> 100,> 100,–,–,–,–
Nc1nc2ncn(CC(O)CO)c2c(=O)[nH]1 (centres undefined),> 100,> 100,> 100,> 100,> 100,> 100,> 100,–,–,–
O=c1ccn(/C=C/C(O)C(O)CO)c(=O)[nH]1 (centres undefined),> 100,> 100,–,> 100,> 100,> 100,> 100,–,–,–
O=S(=O)(O)c1ccc2cc(N=Nc3c(O)ccc4ccccc34)ccc2c1,> 100,> 100,> 100,> 100,> 100,> 100,> 100,> 100,–,> 100
O=C(N/N=C(\C1=Nc2ccc(Cl)cc2NC1O)C(O)/C=C/c1ccccc1)c1ccncc1 (centres undefined),> 100,–,> 100,> 100,> 100,–,> 100,–,–,–
Nc1[nH]c(=O)[nH]c(=O)c1Cc1cccc(Cl)c1,> 100,> 100,> 100,> 100,> 100,> 100,> 100,48.8,> 100,–
COC(=O)CCC(NC(=S)N/N=C(\C)c1cnccn1)C(=O)OC (centres undefined),> 100,> 100,> 100,> 100,> 100,> 100,> 100,–,–,–
Oc1cccnc1/C=N/OCc1ccccc1,> 100,> 100,> 100,> 100,> 100,> 100,> 100,–,–,–
COCCOCOC(C)(C)[C@H](CCO)O[Si](c1ccccc1)(c1ccccc1)C(C)(C)C,22.9,–,21.8,–,23.5,29.5,17.5,–,–,–
CS(=O)(=O)C1(Br)S(=O)(=O)OCCOS1(=O)=O,> 100,> 100,> 100,> 100,> 100,> 100,> 100,–,–,–
O=C(Nc1nc2ncn(CCO)c2c(=O)[nH]1)c1ccccc1,> 100,> 100,> 100,> 100,> 100,> 100,> 100,–,–,–
